# Article PMC9820166, “Salicylate Sodium Suppresses Monocyte Chemoattractant Protein-1 Production by Directly Inhibiting Phosphodiesterase 3B in TNF-α-Stimulated Adipocytes” (International Journal of Molecular Sciences, 2022)
# Columns and labels:
# [1] = tested on: MCP-1 production in TNF-α-stimulated 3T3-L1 pre-adipocytes; assay: Supernatant MCP-1 (ELISA) in TNF-α-stimulated 3T3-L1 pre-adipocytes; assay type: cell-based, mouse
# Method: (§1) The adipocytes were pretreated with SAS at different concentrations (0–5 mM) for 1 h and then stimulated with mouse TNF-α (40 ng/mL) at 37 °C for 24 h. The MCP-1 level in supernatant (for 3T3-L1 adipocytes) or subnatant (for primary adipocytes) was determined by ELISA according to the manufacturer’s instruction. The concentration of MCP-1 was calculated from the standard curve.
# recombinant human PDE3B = molecular target: T1, recombinant human PDE3B (Homo sapiens, UniProt Q13370); assay: PDE3B activity inhibition (PDE-Glo PDE assay kit); assay type: biochemical
# T1 construct: purchased SignalChem Lifesciences Corporation
# Text: (§2) (Fremont, CA, USA). […] All other reagents were of analytical grade.
# human PDE3A = molecular target: T2, human PDE3A (Homo sapiens, UniProt Q14432); assay: PDE3A activity inhibition; assay type: biochemical
# T2 construct: purchased Sino Biological Inc
# Text: as §2
# [2] = tested on: MCP-1 production in TNF-α-stimulated mouse primary adipocytes; assay: Subnatant MCP-1 (ELISA) in TNF-α-stimulated mouse primary adipocytes; assay type: cell-based; conditions: SAS 0–5 mM pretreatment 1 h, TNF-α 40 ng/mL 24 h
# Method: The mouse primary adipocytes were isolated from normal lean male C57BL/6N mice, as described previously, with modification. In brief, the mice were anesthetized by an intraperitoneal injection of 2,2,2-tribromoethanol (200 mg/kg) and sacrificed via a dislocated neck. The epididymal fat pads were removed, minced and digested by collagenase I (2 mg/mL in DMEM supplemented with 20 mg/mL BSA) at 37 °C for 1 h. The digested tissue was filtered, and the filtrate was centrifuged at 200× g for 5 min. Remove and discard the underlying pellet (containing pre-adipocytes, fibroblasts, and erythrocytes) and media. Re-suspend the remaining fat layer in 10 mL DMEM and centrifuge at 200× g for 5 min. Repeat this step two additional times. The floating top layer containing primary differentiated mature adipocytes was collected and cultured in DMEM supplemented with 10% fetal bovine serum (FBS).
# as §1
# [3] = tested on: MCP-1 production in TNF-α-stimulated 3T3-L1 mature adipocytes; assay: Supernatant MCP-1 (ELISA) in TNF-α-stimulated 3T3-L1 mature adipocytes; assay type: cell-based, mouse; conditions: SAS 0–5 mM pretreatment 1 h, TNF-α 40 ng/mL 24 h
# Method: The 3T3-L1 pre-adipocytes were cultured and differentiated into mature adipocytes, as previously described, with slight modification. The cells were maintained in M1 medium (DMEM supplemented with 10% FBS, 1 mM sodium pyruvate, 4 mM glutamine and 1% penicillin-streptomycin solution) to reach confluence. Approximately 2 days later (termed day 0), the medium was replaced with M2 medium (M1 medium supplemented with 1.5 μg/mL insulin, 1 μM dexamethasone, 0.5 mM IBMX and 2 μM rosiglitazone). Two days later, the medium was then changed to M3 medium (M1 medium supplemented with 1.5 μg/mL insulin). Two days later, the medium was replaced with M2 for another 2 days. From day 6, the cells were maintained in M3 medium with a medium change every day. About 8–10 days later, a microscope could observe a lot of lipid droplets and the mature adipocytes were obtained.
# as §1
# MCP-1 mRNA = MCP-1 mRNA level by RT-qPCR in TNF-α-stimulated 3T3-L1 pre-adipocytes; assay type: cell-based, mouse; conditions: SAS 0–5 mM pretreatment 1 h, TNF-α 40 ng/mL 4 h
# Method: The adipocytes were pretreated with SAS at different concentrations (0–5 mM) for 1 h and then stimulated with mouse TNF-α (40 ng/mL) at 37 °C for 4 h. The total mRNA was isolated from 3T3-L1 pre-adipocytes by Trizol reagent according to the manufacturer’s instruction. Reverse transcription reactions were conducted by using M-MuLV first strand cDNA synthesis kit. The RT-qPCR analyses were performed on a BIOER Fluorescent Quantitative Detection System (Bioer Technology, Hangzhou, China). The procedure condition was as follows: 95 °C for 30 s, 95 °C for 5 s with 40 cycles, and 62 °C for 30 s. The comparative Ct method (2^−ΔΔCt) was used to analyze the relative intensities. The primer sequences for MCP-1 were as follows: 5′-[…]-3′ (forward) and 5′-[…]-3′ (reverse). The primer sequences for β-actin were as follows: 5′-[…]-3′ (forward) and 5′-[…]-3′ (reverse).
# MCP-1 mRNA stability = MCP-1 mRNA stability assay (actinomycin D); assay type: cell-based, mouse; conditions: SAS 5 mM, TNF-α 40 ng/mL 2 h then actinomycin D 5 ug/mL
# Method: The mRNA stability assay was performed as described previously with modification. The 3T3-L1 pre-adipocytes were stimulated with TNF-α (40 ng/mL) for 2 h, and then treated with actinomycin D (5 ug/mL). SAS (5 mM) was added at different time points (0, 0.5, 2, 4 h). The total RNA were harvested, and the MCP-1 mRNA levels were measured by RT-qPCR analysis.
# p-ERK = assay: Western blot of p-ERK in TNF-α-stimulated 3T3-L1 pre-adipocytes; assay type: cell-based, mouse; conditions: TNF-α 40 ng/mL
# Method: (§3) The 3T3-L1 pre-adipocytes ([…] per well in 6-well plates) were incubated with SAS for 1 h and then stimulated with mouse TNF-α (40 ng/mL) at 37 °C for indicated time. The total protein was extracted with the mammalian protein extraction kit. For western blot assay, equal amounts of protein samples (30 µg/lane) were separated by 10% sodium dodecyl sulphate-polyacrylamide gel electrophoresis (SDS-PAGE) and then transferred to PVDF membranes. Subsequently, the membranes were blocked with 5% non-fat milk powder in TBST (0.9 mM Tris, 9 mM Tris-HCl, 150 mM NaCl, 0.05% Tween-20) for 2 h at room temperature, and then incubated with various primary antibodies overnight at 4 °C. After being washed by TBST, the membranes were incubated with the corresponding secondary antibodies for 1 h at room temperature. After successive washes, the protein bands were detected using ECL luminescence reagent and photographed by the ChemiDoc XRS+ imaging system (Bio-Rad Technology, Hercules, California, America) or ChemiScope 6000 Exp (Clinx Science Instruments Co., Shanghai, China).
# p-p38 = assay: Western blot of p-p38 in TNF-α-stimulated 3T3-L1 pre-adipocytes; assay type: cell-based, mouse; conditions: TNF-α 40 ng/mL
# Method: as §3
# MKP-1 = assay: Western blot of MKP-1 expression in TNF-α-stimulated 3T3-L1 pre-adipocytes; assay type: cell-based, mouse; conditions: 2 h after TNF-α stimulation
# Method: as §3
# intracellular cAMP = assay: Intracellular cAMP level (ELISA) in TNF-α-stimulated 3T3-L1 pre-adipocytes; assay type: cell-based, mouse; conditions: SAS pretreatment 1 h, TNF-α 40 ng/mL 1 h
# Method: To determine the time-course change of the TNF-α-induced intracellular cAMP, the 3T3-L1 pre-adipocytes were pretreated with or without SAS (5 mM) for 1 h and then exposed to TNF-α (40 ng/mL) for different time. The cells were lysed, and the changes of intracellular cAMP within 4 h were measured by using a commercial cAMP ELISA kit. To determine the concentration-effect of SAS on intracellular cAMP, 3T3-L1 pre-adipocytes were pretreated with SAS for 1 h at the indicated concentrations and then exposed to TNF-α (40 ng/mL) for further 1 h. The cells were lysed, and the intracellular cAMP level was measured by using a commercial cAMP ELISA kit. The protein concentration of each sample was determined using BCA assay, and the cAMP level of each sample was calculated according to the below formula:cAMP level (pmol/mg protein) = cAMP concentration (pmol/mL)/protein concentration (mg/mL)
# PKA = assay: Intracellular PKA activity (PepTag assay) in TNF-α-stimulated 3T3-L1 pre-adipocytes; assay type: cell-based, mouse; conditions: SAS pretreatment 1 h, TNF-α 40 ng/mL 1 h
# Method: The 3T3-L1 pre-adipocytes were pretreated with SAS for 1 h and then stimulated with TNF-α (40 ng/mL) for further 1 h. The cells were lysed by cold PKA extraction buffer [25 mM Tris-HCl (pH 7.4), 0.5 mM EDTA, 0.5 mM EGTA, 10 mM β-mercaptoethanol, 1 μg/mL leupetin, 1 μg/mL aprotinin and 0.5 mM PMSF] and centrifuged (5000× g) at 4 °C for 10 min. The supernatant was used immediately for PKA activity determination by using a PepTag assay for non-radioactive detection of PKA.
# [4] = tested on: high-fat diet obese C57BL/6N mice; assay: Recruitment of labeled circulating monocytes into adipose tissue of obese mice; assay type: in vivo, mouse; conditions: 45 mg/kg/day subcutaneous for 4 days
# Method: page 7: Figure S7. SAS impedes the recruitment of circulating monocytes into adipose tissue in vivo (n = 4). (A) The fluorescence intensity of monocytes in adipose tissue. Male C57BL/6N mice (18 g - 20 g) were fed with high-fat diet (HFD) for 18 weeks. The obtained obese mice (36 g - 40 g) with enough epididymal adipose tissues were subcutaneously injected with SAS (45 mg/kg/day) for 4 days. Circulating blood monocytes were labeled by intravenous injection of Fluoresbrite YG Carboxylate Microspheres. Three days later, the mice were euthanatized and adipose tissues around epididymis were collected, 1.5 g of adipose tissue was digested by collagenase I. The fluorescence value of digestive juice was read at λex 441 nm and λem 486 nm. **P < 0.01 vs. HFD alone. (B) The photograph of labeled monocytes in adipose tissues. The sectioned adipose tissue (about 0.5 g) for photograph by a laser confocal microscopy using a 20 × objective. Fluorescence-labeled monocytes were shown in green. SAS, salicylate sodium. (1 picture or pasted object on this page, not shown here)
# human PDE4B = human PDE4B (Homo sapiens, UniProt Q07343); conditions: read-out: IC50 PDE4B activity
# [5] = 200 μM pretreatment 1 h, TNF-α 40 ng/mL 24 h
# T1 sequence (Q13370 whole entry): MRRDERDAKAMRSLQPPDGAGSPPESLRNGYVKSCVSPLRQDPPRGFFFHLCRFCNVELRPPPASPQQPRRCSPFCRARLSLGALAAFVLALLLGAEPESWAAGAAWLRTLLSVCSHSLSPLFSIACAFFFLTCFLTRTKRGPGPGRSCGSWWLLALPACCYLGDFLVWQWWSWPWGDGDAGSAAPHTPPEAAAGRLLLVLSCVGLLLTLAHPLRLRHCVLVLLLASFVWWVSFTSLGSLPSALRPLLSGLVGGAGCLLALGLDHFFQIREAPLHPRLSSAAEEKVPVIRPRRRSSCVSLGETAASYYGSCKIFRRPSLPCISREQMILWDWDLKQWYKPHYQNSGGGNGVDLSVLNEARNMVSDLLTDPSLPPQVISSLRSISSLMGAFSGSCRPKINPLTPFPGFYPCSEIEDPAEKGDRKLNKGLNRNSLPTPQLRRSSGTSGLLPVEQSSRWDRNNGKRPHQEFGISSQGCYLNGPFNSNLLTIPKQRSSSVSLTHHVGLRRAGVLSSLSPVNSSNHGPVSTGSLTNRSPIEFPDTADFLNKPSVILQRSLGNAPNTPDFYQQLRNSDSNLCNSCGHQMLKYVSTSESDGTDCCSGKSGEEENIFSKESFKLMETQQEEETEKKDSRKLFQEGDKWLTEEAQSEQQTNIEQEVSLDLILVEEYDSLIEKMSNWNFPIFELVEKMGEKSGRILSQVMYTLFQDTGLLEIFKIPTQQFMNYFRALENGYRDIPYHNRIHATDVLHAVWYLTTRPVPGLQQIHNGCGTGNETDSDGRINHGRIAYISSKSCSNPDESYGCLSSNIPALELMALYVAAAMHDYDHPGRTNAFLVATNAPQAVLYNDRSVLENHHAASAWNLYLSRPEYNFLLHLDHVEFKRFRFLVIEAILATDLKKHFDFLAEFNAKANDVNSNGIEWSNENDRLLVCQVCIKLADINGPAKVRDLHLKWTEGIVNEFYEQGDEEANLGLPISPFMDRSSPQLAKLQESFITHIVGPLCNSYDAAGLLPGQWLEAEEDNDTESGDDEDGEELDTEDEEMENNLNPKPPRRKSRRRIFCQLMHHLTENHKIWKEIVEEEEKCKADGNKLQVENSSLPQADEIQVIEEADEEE
# T2 sequence (Q14432 whole entry): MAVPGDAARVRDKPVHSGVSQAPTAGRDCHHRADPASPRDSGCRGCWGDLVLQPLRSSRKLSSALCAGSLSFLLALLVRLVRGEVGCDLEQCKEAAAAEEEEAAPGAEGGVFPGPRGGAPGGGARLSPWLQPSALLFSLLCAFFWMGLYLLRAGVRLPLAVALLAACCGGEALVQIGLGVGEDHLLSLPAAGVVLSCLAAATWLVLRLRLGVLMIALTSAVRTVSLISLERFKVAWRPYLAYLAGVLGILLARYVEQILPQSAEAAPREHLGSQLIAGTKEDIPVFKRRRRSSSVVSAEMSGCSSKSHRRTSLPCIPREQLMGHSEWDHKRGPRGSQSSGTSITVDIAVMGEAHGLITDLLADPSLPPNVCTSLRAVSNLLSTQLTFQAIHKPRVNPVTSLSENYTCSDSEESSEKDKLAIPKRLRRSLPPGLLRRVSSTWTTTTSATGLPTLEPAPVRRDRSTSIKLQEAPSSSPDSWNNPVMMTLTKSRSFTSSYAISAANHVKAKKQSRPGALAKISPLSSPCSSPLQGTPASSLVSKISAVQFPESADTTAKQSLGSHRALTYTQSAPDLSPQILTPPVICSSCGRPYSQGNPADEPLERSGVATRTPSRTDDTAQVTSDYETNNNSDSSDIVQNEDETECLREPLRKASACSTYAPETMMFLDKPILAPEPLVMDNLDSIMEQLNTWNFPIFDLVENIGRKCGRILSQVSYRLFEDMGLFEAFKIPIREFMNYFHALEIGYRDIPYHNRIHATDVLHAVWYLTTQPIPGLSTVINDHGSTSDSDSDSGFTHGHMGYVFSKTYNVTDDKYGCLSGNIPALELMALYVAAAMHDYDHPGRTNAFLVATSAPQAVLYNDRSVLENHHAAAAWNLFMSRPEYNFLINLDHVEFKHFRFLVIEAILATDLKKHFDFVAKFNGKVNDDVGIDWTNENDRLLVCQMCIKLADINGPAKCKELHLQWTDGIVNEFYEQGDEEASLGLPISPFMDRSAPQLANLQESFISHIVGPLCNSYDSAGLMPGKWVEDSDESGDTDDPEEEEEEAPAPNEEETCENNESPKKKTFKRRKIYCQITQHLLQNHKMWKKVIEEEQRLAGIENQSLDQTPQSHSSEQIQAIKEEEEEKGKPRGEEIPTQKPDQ
# Chain of human PDE4B (Q07343 whole entry): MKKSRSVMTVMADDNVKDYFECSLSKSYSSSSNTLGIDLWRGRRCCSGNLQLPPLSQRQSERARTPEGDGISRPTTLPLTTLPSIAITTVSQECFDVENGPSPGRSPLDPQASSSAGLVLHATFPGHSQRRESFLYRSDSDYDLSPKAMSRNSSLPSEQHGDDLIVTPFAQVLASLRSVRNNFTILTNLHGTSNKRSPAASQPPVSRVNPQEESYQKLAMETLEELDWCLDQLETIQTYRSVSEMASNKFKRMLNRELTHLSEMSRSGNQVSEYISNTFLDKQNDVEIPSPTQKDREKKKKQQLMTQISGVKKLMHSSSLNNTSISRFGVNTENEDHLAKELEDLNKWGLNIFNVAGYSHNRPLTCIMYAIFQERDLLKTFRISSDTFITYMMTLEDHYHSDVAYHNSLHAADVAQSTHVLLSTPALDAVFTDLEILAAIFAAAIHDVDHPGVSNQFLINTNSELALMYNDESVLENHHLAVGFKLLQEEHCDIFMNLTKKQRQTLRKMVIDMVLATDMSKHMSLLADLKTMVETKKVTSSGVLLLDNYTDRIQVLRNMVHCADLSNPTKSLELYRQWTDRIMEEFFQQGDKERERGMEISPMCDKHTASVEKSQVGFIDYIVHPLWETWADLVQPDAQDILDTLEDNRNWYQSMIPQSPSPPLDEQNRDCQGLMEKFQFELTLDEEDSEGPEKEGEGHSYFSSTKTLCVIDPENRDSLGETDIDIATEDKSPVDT
smiles,measurement,setting,value
NC(=O)c1ncn([C@@H]2O[C@H](CO)[C@@H](O)[C@H]2O)c1N [AICAR],Effect on MCP-1 production,"[1]; 100 μM pretreatment 1 h, TNF-α 40 ng/mL 24 h",did not decrease the MCP-1 production
c1cc(-c2cnn3cc(-c4ccc(OCCN5CCCCC5)cc4)cnc23)ccn1 [Compound C],Effect of AMPK inhibitor on the MCP-1-lowering effect of SAS,"[1]; co-treatment with SAS, TNF-α-stimulated",could not antagonize the effect of SAS
O=S(=O)(NCCNC/C=C/c1ccc(Br)cc1)c1cccc2cnccc12 [H89],Effect of PKA antagonist on the MCP-1-lowering effect of SAS,"[1]; 100 nM, with SAS, TNF-α-stimulated",abolished the effect of SAS on MCP-1
Nc1ncnc2c1ncn2[C@@H]1O[C@@H]2CO[P@@](O)(=S)O[C@H]2[C@H]1O [RP-cAMPS],Effect of cAMP antagonist on the MCP-1-lowering effect of SAS,"[1]; 100 μM, with SAS, TNF-α-stimulated",abolished the effect of SAS on MCP-1
"O=C(O)c1ccccc1O [SAS, salicylate sodium]",IC50,recombinant human PDE3B,13.8 mM
same,IC50,human PDE3A,6 mM
same,Effect on MCP-1 production (supernatant),"[1]; 3T3-L1 pre-adipocytes, SAS 0–5 mM pretreatment 1 h, TNF-α 40 ng/mL 24 h",significantly decreased MCP-1 production
same,Effect of SAS on MCP-1 in IKKβ-deficient cells,[1]; IKKβ siRNA knockdown 3T3-L1 pre-adipocytes,did not impact the effect of SAS on MCP-1
same,Effect of SAS on MCP-1 in PDE3B-deficient cells,[1]; PDE3B siRNA knockdown 3T3-L1 pre-adipocytes vs scrambled siRNA,almost disappeared
same,Concentration that impedes MCP-1 expression in adipocytes,"[1]; in vitro, adipocytes (Figure 2)",1.25 to 5 mM
same,Effect on MCP-1 production (subnatant),[2],significantly decreased MCP-1 production
same,Effect on MCP-1 production (supernatant),[3],significantly decreased MCP-1 production
same,Effect on MCP-1 mRNA level,MCP-1 mRNA,concentration-dependently decreased the MCP-1 mRNA level
same,Effect on MCP-1 mRNA stability,MCP-1 mRNA stability,did not affect the mRNA stability of MCP-1
same,Effect on p-ERK level,p-ERK,concentration-dependently decrease the levels of p-ERK and p-p38
same,Effect on p-p38 level,p-p38,concentration-dependently decrease the levels of p-ERK and p-p38
same,Effect on MKP-1 expression,MKP-1,maintained the expression of MKP-1 at 2 h
same,Effect on TNF-α-caused reduction of intracellular cAMP,intracellular cAMP,could prevent this decrease in a concentration-dependent manner
same,Effect on intracellular PKA activity,PKA,elevated the intracellular PKA activity
same,Recruitment of circulating monocytes into adipose tissue,[4],markedly prevented the recruitment of circulating monocytes into the adipose tissue
same,IC50,human PDE4B,0.81 mM
CN(C(=O)CCCOc1ccc2[nH]c(=O)ccc2c1)C1CCCCC1 [cilostamide],Effect on MCP-1 production,[1]; [5],suppressed the MCP-1 production
Cc1[nH]c(=O)c(C#N)cc1-c1ccncc1 [milrinone],Effect on MCP-1 production,[1]; [5],suppressed the MCP-1 production
